This note sets out measurements from patent publication US20070244153A1 (priority 2004, published 2007).

Each structure is given as a SMILES string.

The melting point is the temperature, or range, at which the solid turns liquid.

Data set [1] concerns Pseudoperonospora cubensis. Description: Controlling effect against cucumber downy mildew (spray on cucumber seedlings, 250 ppm). Type of data set: in vivo. To be noted: 250 ppm spray, cucumber seedling 1-leaf stage, 7th day after inoculation; untreated 60 to 80%. Here is the method: A solution of the compound in acetone was diluted with water to 250 ppm, and the solution was sprayed to the cucumber seedling (breed: Sagamihangbak, two per plastic pot having a diameter of 7.5 cm) at 1-leaf stage in an amount of 10 mL of the compound/pot. After air-drying, the pot was transferred to a moist chamber provided in the greenhouse, and inoculated by spray with a zoosporic suspension of Pseudoperonospora cubensis. On the 7th day after inoculation the infected area rate for the leaves was examined. Evaluation was carried out by the following criteria.
The infected area rate for untreated groups in the examination was 60 to 80%.

In data set [2] the test system is Phytophthora infestans. The data set is classed as in vivo. To be noted: 250 ppm spray, tomato seedling 4-leaf stage, 4th day after inoculation; untreated not less than 60%.
The subject of data set [3] is Plasmopara viticola. Nature of the data set: Controlling effect against grape downy mildew (leaf disk immersion, 250 ppm). The data set is classed as in vivo. To be noted: grape leaf disk immersed 3 hours, 10th day after inoculation, untreated 60 to 70%. Here is the method: The developed leaf of grape seedling (breed: Cabernet Sauvignon) grown in 1/2000 a pot was cut and prepared a leaf disk having a diameter of 32 mm. A solution of the compound in acetone was diluted with water to 250 ppm, and the leaf disk was immersed for 3 hours. The disk was taken from the agent solution, subjected to air-drying, and then inoculated by spray with a zoosporangia suspension of Plasmopara viticola. The test disk was incubated at 18° C. for 12 hours in a light-dark light cycle. On the 10th day after inoculation the infected area rate for the leaf disk was examined. Evaluation was carried out by the following criteria. The infected area rate for the untreated groups in the examination was 60 to 70%.

Data set [4] deals with Pyricularia oryzae. Type of data set: in vivo. Particulars: 250 ppm spray, rice plant 4-leaf stage, 7th to 10th days after inoculation; untreated not less than 60.

As to `Cc1ccc(C(=O)NC[C@@H](NC(=O)Oc2ccccc2)C(C)C)cc1` [Comparative Compound, reference compound], in data set [1], the “Effect: controlling effect against cucumber downy mildew (infected area rate)” value is “C (the infected area rate of not less than 50%)”. The “Effect: controlling effect against tomato late blight (infected area rate)” value in data set [2] is “C (Infected area rate of not less than 50%)”. In addition, the “Effect: controlling effect against grape downy mildew (infected area rate)” value in data set [3] was “C (the infected area rate of not less than 50%)”. The “Effect: controlling effect against rice blast disease (number of lesions per pot)” value in data set [4] is recorded as “A (The number of lesions of less than 5)”.

In the case of `CC(C)OC(=O)N[C@H](C(=O)N[C@H](CNC(=O)c1cccc2onnc12)C(C)C)C(C)C` [Compound No. 929, N-[1-(S)-[(benzoxadiazol-4-yl)carbonylaminomethyl]-2-methylpropyl]3-methyl-2-(S)-[(1-methylethyl)oxycarbonylamino]butyramide], the melting point was 242.9 °C. In addition, the “Effect: controlling effect against cucumber downy mildew (infected area rate)” value in data set [1] is “A (the infected area rate of less than 5%)”. For the same compound, in data set [2], the “Effect: controlling effect against tomato late blight (infected area rate)” value was “A (Infected area rate of less than 5%)”. In addition, in data set [3], the “Effect: controlling effect against grape downy mildew (infected area rate)” value was “B (the infected area rate of 5% to less than 50%)”.
